Assay results: ChEMBL document CHEMBL4308841, “Synthesis, in vitro antiproliferative activity, and kinase inhibitory effects of pyrazole-containing diarylureas and diarylamides” (Eur J Med Chem, 2018)

Experiments:
[1] = tested on: HL-60(TB); assay: Growth inhibition of human HL-60(TB) cells incubated for 48 hrs by sulforhodamine B assay; format: functional, cell-based; conditions: HL-60, 48 h
[2] = tested on: SK-MEL-2; assay: Growth inhibition of human SK-MEL-2 cells incubated for 48 hrs by sulforhodamine B assay; format: functional, cell-based; conditions: SK-MEL-2, 48 h
[3] = tested on: RXF 393; assay: Growth inhibition of human RXF393 cells incubated for 48 hrs by sulforhodamine B assay; format: functional, cell-based; conditions: RXF 393, 48 h
[4] = tested on: MCF7; assay: Growth inhibition of human MCF7 cells incubated for 48 hrs by sulforhodamine B assay; format: functional, cell-based; conditions: MCF7, 48 h
[5] = tested on: CCRF-CEM; assay: Growth inhibition of human CCRF-CEM cells assessed as cell growth at 0.01 uM incubated for 48 hrs by sulforhodamine B assay relative to control; format: functional; conditions: read-out: Activity
[6] = tested on: SF-539; assay: Growth inhibition of human SF539 cells assessed as cell growth at 0.01 uM incubated for 48 hrs by sulforhodamine B assay relative to control; format: functional; conditions: SF-539, 48 h, read-out: Activity
[7] = tested on: SK-OV-3; assay: Growth inhibition of human SKOV3 cells assessed as cell growth at 0.01 uM incubated for 48 hrs by sulforhodamine B assay relative to control; format: functional; conditions: SK-OV-3, 48 h, read-out: Activity
[8] = tested on: MOLT-4; assay: Growth inhibition of human MOLT4 cells assessed as cell growth at 0.1 uM incubated for 48 hrs by sulforhodamine B assay relative to control; format: functional; conditions: MOLT-4, 48 h, read-out: Activity
[9] = tested on: NCI-H460; assay: Growth inhibition of human NCI-H460 cells assessed as cell growth at 0.1 uM incubated for 48 hrs by sulforhodamine B assay relative to control; format: functional; conditions: NCI-H460, 48 h, read-out: Activity
[10] = tested on: SW-620; assay: Growth inhibition of human SW620 cells assessed as cell growth at 0.1 uM incubated for 48 hrs by sulforhodamine B assay relative to control; format: functional; conditions: SW-620, 48 h, read-out: Activity
[11] = tested on: SF-295; assay: Growth inhibition of human SF295 cells assessed as cell growth at 0.1 uM incubated for 48 hrs by sulforhodamine B assay relative to control; format: functional; conditions: SF-295, 48 h, read-out: Activity
[12] = tested on: MDA-MB-435; assay: Growth inhibition of human MDA-MB-435 cells assessed as cell growth at 0.1 uM incubated for 48 hrs by sulforhodamine B assay relative to control; format: functional; conditions: MDA-MB-435, 48 h, read-out: Activity
[13] = tested on: SK-MEL-28; assay: Growth inhibition of human SK-MEL-28 cells assessed as cell growth at 0.1 uM incubated for 48 hrs by sulforhodamine B assay relative to control; format: functional; conditions: SK-MEL-28, 48 h, read-out: Activity
[14] = tested on: OVCAR-4; assay: Growth inhibition of human OVCAR4 cells assessed as cell growth at 0.1 uM incubated for 48 hrs by sulforhodamine B assay relative to control; format: functional; conditions: OVCAR-4, 48 h, read-out: Activity
[15] = tested on: NCI/ADR-RES; assay: Growth inhibition of human NCI/ADR-RES cells assessed as cell growth at 0.1 uM incubated for 48 hrs by sulforhodamine B assay relative to control; format: functional; conditions: read-out: Activity
[16] = tested on: MCF7; assay: Growth inhibition of human MCF7 cells assessed as cell growth at 0.1 uM incubated for 48 hrs by sulforhodamine B assay relative to control; format: functional; conditions: MCF7, 48 h, read-out: Activity
[17] = tested on: CCRF-CEM; assay: Growth inhibition of human CCRF-CEM cells assessed as cell growth at 1 uM incubated for 48 hrs by sulforhodamine B assay relative to control; format: functional; conditions: read-out: Activity
[18] = tested on: KM12; assay: Growth inhibition of human KM12 cells assessed as cell growth at 1 uM incubated for 48 hrs by sulforhodamine B assay relative to control; format: functional; conditions: KM12, 48 h, read-out: Activity
[19] = tested on: M14; assay: Growth inhibition of human M14 cells assessed as cell growth at 1 uM incubated for 48 hrs by sulforhodamine B assay relative to control; format: functional; conditions: M14, 48 h, read-out: Activity
[20] = tested on: MDA-MB-435; assay: Growth inhibition of human MDA-MB-435 cells assessed as cell growth at 1 uM incubated for 48 hrs by sulforhodamine B assay relative to control; format: functional; conditions: MDA-MB-435, 48 h, read-out: Activity
[21] = tested on: SK-MEL-28; assay: Growth inhibition of human SK-MEL-28 cells assessed as cell growth at 1 uM incubated for 48 hrs by sulforhodamine B assay relative to control; format: functional; conditions: SK-MEL-28, 48 h, read-out: Activity
[22] = tested on: A498; assay: Growth inhibition of human A498 cells assessed as cell growth at 1 uM incubated for 48 hrs by sulforhodamine B assay relative to control; format: functional; conditions: A498, 48 h, read-out: Activity
[23] = tested on: UO-31; assay: Growth inhibition of human UO31 cells assessed as cell growth at 1 uM incubated for 48 hrs by sulforhodamine B assay relative to control; format: functional; conditions: UO-31, 48 h, read-out: Activity
[24] = tested on: MDA-MB-231; assay: Growth inhibition of human MDA-MB-231 cells assessed as cell growth at 1 uM incubated for 48 hrs by sulforhodamine B assay relative to control; format: functional; conditions: MDA-MB-231, 48 h, read-out: Activity
[25] = tested on: NCI-H226; assay: Growth inhibition of human NCI-H226 cells assessed as cell growth at 100 uM incubated for 48 hrs by sulforhodamine B assay relative to control; format: functional; conditions: NCI-H226, 48 h, read-out: Activity
[26] = tested on: NCI-H522; assay: Growth inhibition of human NCI-H522 cells assessed as cell growth at 100 uM incubated for 48 hrs by sulforhodamine B assay relative to control; format: functional; conditions: NCI-H522, 48 h, read-out: Activity
[27] = tested on: SK-MEL-5; assay: Growth inhibition of human SK-MEL-5 cells assessed as cell growth at 100 uM incubated for 48 hrs by sulforhodamine B assay relative to control; format: functional; conditions: SK-MEL-5, 48 h, read-out: Activity
[28] = tested on: IGROV-1; assay: Growth inhibition of human IGROV1 cells assessed as cell growth at 100 uM incubated for 48 hrs by sulforhodamine B assay relative to control; format: functional; conditions: IGROV-1, 48 h, read-out: Activity
[29] = tested on: OVCAR-3; assay: Growth inhibition of human OVCAR3 cells assessed as cell growth at 100 uM incubated for 48 hrs by sulforhodamine B assay relative to control; format: functional; conditions: OVCAR-3, 48 h, read-out: Activity
[30] = tested on: OVCAR-4; assay: Growth inhibition of human OVCAR4 cells assessed as cell growth at 100 uM incubated for 48 hrs by sulforhodamine B assay relative to control; format: functional; conditions: OVCAR-4, 48 h, read-out: Activity
[31] = tested on: CAKI-1; assay: Growth inhibition of human Caki1 cells assessed as cell growth at 100 uM incubated for 48 hrs by sulforhodamine B assay relative to control; format: functional; conditions: CAKI-1, 48 h, read-out: Activity
[32] = read-out: LC50 (the source's name)
[33] = read-out: pLC50 (the source's name) (converted)

## O=C(Nc1cccc(-n2cc(-c3ccncc3)c(-c3cc(O)cc(Cl)c3)n2)c1)Nc1ccc(Cl)c(Cl)c1
[1]; read-out: GI50
  GI50: 3.02 µM
[1]; read-out: LC50
  LC50: > 100 µM
[1]; read-out: pGI50 (converted)
  GI50: 3.02 µM
[1]; read-out: pLC50 (converted)
  LC50: > 100 µM
[2]; read-out: GI50
  GI50: 1.3 µM
[2]; [32]
  CC50: 9.1 µM
[2]; read-out: TGI
  TGI: 40.4 µM
[2]; read-out: pGI50 (converted)
  GI50: 1.78 µM
[2]; [33]
  CC50: 9.12 µM
[2]; read-out: pTGI (converted)
  TGI: 4.07 µM
[3]
  LC50: 8.13 µM
[3]; read-out: GI50
  GI50: 0.556 µM
[3]; read-out: TGI
  TGI: 24.6 µM
[3]; read-out: pGI50 (converted)
  GI50: 0.55 µM
[3]; read-out: pTGI (converted)
  TGI: 2.45 µM
[4]; read-out: GI50
  GI50: 2.51 µM
[4]; read-out: LC50
  LC50: > 100 µM
[4]; read-out: TGI
  TGI: 97.4 µM
[4]; read-out: pGI50 (converted)
  GI50: 2.82 µM
[4]; read-out: pLC50 (converted)
  LC50: > 100 µM
[4]; read-out: pTGI (converted)
  TGI: 9.77 µM
[5]
  growth at 0.01 µM: 96%
[6]
  growth at 0.01 µM: 59%
[7]
  growth at 0.01 µM: 108%
[8]
  growth at 0.1 µM: 94%
[9]
  growth at 0.1 µM: 97%
[10]
  growth at 0.1 µM: 99%
[11]
  growth at 0.1 µM: 87%
[12]
  growth at 0.1 µM: 93%
[13]
  growth at 0.1 µM: 97%
[14]
  growth at 0.1 µM: 95%
[15]
  growth at 0.1 µM: 105%
[16]
  growth at 0.1 µM: 97%
[17]
  growth at 1 µM: 76%
[18]
  growth at 1 µM: 72%
[19]
  growth at 1 µM: 72%
[20]
  growth at 1 µM: 79%
[21]
  growth at 1 µM: 90%
[22]
  growth at 1 µM: 75%
[23]
  growth at 1 µM: 78%
[24]
  growth at 1 µM: 50%
[25]
  growth at 100 µM: -41%
[26]
  growth at 100 µM: -55%
[27]
  growth at 100 µM: -78%
[28]
  growth at 100 µM: -12%
[29]
  growth at 100 µM: -20%
[30]
  growth at 100 µM: 9%
[31]
  growth at 100 µM: -12%

## COc1cc(Cl)cc(-c2nn(-c3cccc(NC(=O)Nc4cccc(C(F)(F)F)c4)c3)cc2-c2ccncc2)c1
[1]; read-out: GI50
  GI50: 1.91 µM
[1]; read-out: LC50
  LC50: > 100 µM
[1]; read-out: TGI
  TGI: 55.1 µM
[1]; read-out: pGI50 (converted)
  GI50: 1.91 µM
[1]; read-out: pLC50 (converted)
  LC50: > 100 µM
[1]; read-out: pTGI (converted)
  TGI: 5.5 µM
[2]; read-out: GI50
  GI50: 1.29 µM
[2]; [32]
  CC50: 73.4 µM
[2]; read-out: TGI
  TGI: 30.5 µM
[2]; read-out: pGI50 (converted)
  GI50: 1.29 µM
[2]; [33]
  CC50: 7.41 µM
[2]; read-out: pTGI (converted)
  TGI: 3.09 µM
[3]
  LC50: 36.3 µM
[3]; read-out: GI50
  GI50: 1.4 µM
[3]; read-out: TGI
  TGI: 43.5 µM
[3]; read-out: pGI50 (converted)
  GI50: 1.41 µM
[3]; read-out: pTGI (converted)
  TGI: 4.37 µM
[4]; read-out: GI50
  GI50: 1.48 µM
[4]; read-out: LC50
  LC50: > 100 µM
[4]; read-out: TGI
  TGI: 75.7 µM
[4]; read-out: pGI50 (converted)
  GI50: 1.48 µM
[4]; read-out: pLC50 (converted)
  LC50: > 100 µM
[4]; read-out: pTGI (converted)
  TGI: 7.59 µM
[5]
  growth at 0.01 µM: 98%
[6]
  growth at 0.01 µM: 100%
[7]
  growth at 0.01 µM: 92%
[8]
  growth at 0.1 µM: 55%
[9]
  growth at 0.1 µM: 102%
[10]
  growth at 0.1 µM: 100%
[11]
  growth at 0.1 µM: 57%
[12]
  growth at 0.1 µM: 97%
[13]
  growth at 0.1 µM: 100%
[14]
  growth at 0.1 µM: 98%
[15]
  growth at 0.1 µM: 98%
[16]
  growth at 0.1 µM: 102%
[17]
  growth at 1 µM: 56%
[18]
  growth at 1 µM: 38%
[19]
  growth at 1 µM: 64%
[20]
  growth at 1 µM: 85%
[21]
  growth at 1 µM: 82%
[22]
  growth at 1 µM: 75%
[23]
  growth at 1 µM: 51%
[24]
  growth at 1 µM: 71%
[25]
  growth at 100 µM: -22%
[26]
  growth at 100 µM: -78%
[27]
  growth at 100 µM: -99%
[28]
  growth at 100 µM: -12%
[29]
  growth at 100 µM: -41%
[30]
  growth at 100 µM: -13%
[31]
  growth at 100 µM: -20%
